What all share (type): biochemical
In one assay the target is PIM-1 (Homo sapiens, UniProt P11309). Briefly: Enzyme PIM-1 Assay ([33P]ATP incorporation into PIM2tide, filter plate). The following applies: averaged IC50; 35 μM ATP, 7.5 μM PIM2tide, 0.25 nM PIM-1, 60 min at 22° C. The method in brief:
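Ten-point, 3-fold dilution series (10 μM top, 2% DMSO final) tested for inhibition of 33P transfer from 35 μM ATP to 7.5 μM PIM2tide by 0.25 nM PIM-1. Reaction 60 min, 22 °C, pH 7.4 MOPS/MgCl2 buffer; phosphocellulose capture, scintillation counting, IC50 where fitted POC equals 50.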

Assay [1] deals with T1, GST-tagged recombinant full-length human Pim-2 (Homo sapiens, UniProt Q9P1W9).
T1 construct: GST-tagged recombinant full-length human Pim-2; GST
T1 sequence (Q9P1W9 whole entry): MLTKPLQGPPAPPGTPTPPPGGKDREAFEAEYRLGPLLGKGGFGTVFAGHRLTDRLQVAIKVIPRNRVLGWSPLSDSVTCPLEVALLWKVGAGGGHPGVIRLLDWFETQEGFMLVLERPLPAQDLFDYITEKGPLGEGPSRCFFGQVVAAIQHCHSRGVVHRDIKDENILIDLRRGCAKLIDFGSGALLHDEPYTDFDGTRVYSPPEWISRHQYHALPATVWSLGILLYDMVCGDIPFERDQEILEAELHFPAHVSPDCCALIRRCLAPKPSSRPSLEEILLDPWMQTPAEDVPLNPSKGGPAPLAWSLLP
In words: PIM-2 Assay (as Example A). To be noted: averaged IC50; 4 μM ATP, 1.0 μM PIM2tide, 1.5 nM Pim-2. The method in brief: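 IC50 was derived by 4-parameter logistic fitting of percent-of-control data over a 10-point, 3-fold series (highest 10 μM, 2% DMSO). Reactions held 1.5 nM GST-Pim-2 (full-length, human), 4 μM [γ-33P]ATP and 1.0 μM PIM2tide for 60 min at 22 °C, pH 7.4; 33P-peptide captured on P81 filters.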

The target in another assay is recombinant rat PIM-3 (Rattus norvegicus, UniProt O70444). Briefly: PIM-3 Assay (as Example A). The following applies: averaged IC50; 30 μM ATP, 3.75 μM PIM2tide, 0.5 nM PIM-3. The method in brief: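 33P incorporation from 30 μM [γ-33P]ATP into 3.75 μM PIM2tide by 0.5 nM rat PIM-3, 60 min at 22 °C in pH 7.4 MOPS buffer, read by P81 filter capture and scintillation counting. Compounds tested in 3-fold dilutions up to 10 μM final, 2% DMSO; percent-of-control data fitted by 4-parameter logistic for IC50.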

Where a name gives a salt, the structure may show the parent alone.

Chain of PIM-1 (P11309 whole entry, species assumed): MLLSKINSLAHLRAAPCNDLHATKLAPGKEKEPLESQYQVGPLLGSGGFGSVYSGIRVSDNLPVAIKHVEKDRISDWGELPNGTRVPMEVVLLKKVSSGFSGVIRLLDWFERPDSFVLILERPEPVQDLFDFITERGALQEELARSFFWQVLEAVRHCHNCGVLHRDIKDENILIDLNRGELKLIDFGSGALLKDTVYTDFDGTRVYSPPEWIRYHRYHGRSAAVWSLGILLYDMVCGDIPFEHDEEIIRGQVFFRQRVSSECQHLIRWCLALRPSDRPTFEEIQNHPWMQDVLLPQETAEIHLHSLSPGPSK

In the case of `COc1cccc2ccc(-c3nnc4ccc([C@@H](N5CC[C@H](NCCF)C5)C(F)(F)F)cn34)nc12` [Example 80, (S)—N-(2-fluoroethyl)-1-((R)-2,2,2-trifluoro-1-(3-(8-methoxyquinolin-2-yl)-[1,2,4]triazolo[4,3-a]pyridin-6-yl)ethyl)pyrrolidin-3-amine dihydrochloride], the IC50 is 6.41 nM against PIM-1, over 100 nM in assay [1] and 32 nM at recombinant rat PIM-3.
For the compound `CC(C)Oc1cccc2ccc(-c3nnc4ccc([C@@H](N5CC[C@H](NCCF)C5)C(F)(F)F)cn34)nc12` [Example 81, (S)—N-(2-fluoroethyl)-1-((R)-2,2,2-trifluoro-1-(3-(8-isopropoxyquinolin-2-yl)-[1,2,4]triazolo[4,3-a]pyridin-6-yl)ethyl)pyrrolidin-3-amine dihydrochloride], the 50% inhibitory concentration (IC50) at PIM-1 is 0.37 nM; in assay [1], over 100 nM; at recombinant rat PIM-3 it was 2.8 nM.
Consider `CC(C)(C)NC(=O)c1ccc2ccc(-c3nnc4ccc([C@@H](N5CC[C@H](N)C5)C(F)(F)F)cn34)nc2c1C1CC1` [Example 83, 2-(6-((R)-1-((S)-3-aminopyrrolidin-1-yl)-2,2,2-trifluoroethyl)-[1,2,4]triazolo[4,3-a]pyridin-3-yl)-N-tert-butyl-8-cyclopropylquinoline-7-carboxamide dihydrochloride], for which the IC50 against PIM-1 worked out at 1.13 nM; in assay [1], 28 nM; on recombinant rat PIM-3, 1 nM.
For the compound `N#Cc1ccc2ccc(-c3nnc4ccc([C@@H](N5CC[C@H](N)C5)C(F)(F)F)cn34)nc2c1` [Example 84, 2-(6-((R)-1-((S)-3-aminopyrrolidin-1-yl)-2,2,2-trifluoroethyl)-[1,2,4]triazolo[4,3-a]pyridin-3-yl)quinoline-7-carbonitrile], the concentration for half-maximal inhibition (IC50) is 0.73 nM on PIM-1, over 100 nM in assay [1] and 12 nM at recombinant rat PIM-3.
With `CC(C)Oc1cc(F)cc2ccc(-c3nnc4ccc([C@@H](N5CC[C@H](N)C5)C(F)(F)F)cn34)nc12` [Example 86, (S)-1-((R)-2,2,2-trifluoro-1-(3-(6-fluoro-8-isopropoxyquinolin-2-yl)-[1,2,4]triazolo[4,3-a]pyridin-6-yl)ethyl)pyrrolidin-3-amine hydrochloride], the half-inhibitory concentration (IC50) on PIM-1 is 0.14 nM; in assay [1], 31 nM; at recombinant rat PIM-3 it was 0.3 nM.
For `CC(C)NC(=O)c1cccc2ccc(-c3nnc4ccc([C@@H](N5CC[C@H](N)C5)C(F)(F)F)cn34)nc12` [Example 87, 2-(6-((R)-1-((S)-3-aminopyrrolidin-1-yl)-2,2,2-trifluoroethyl)-[1,2,4]triazolo[4,3-a]pyridin-3-yl)-N-isopropylquinoline-8-carboxamide dihydrochloride], the IC50 against PIM-1 was 35.5 nM; in assay [1] it was over 100 nM; on recombinant rat PIM-3, over 100 nM.
Take `N#Cc1cccc2ccc(-c3nnc4ccc([C@@H](N5CC[C@H](N)C5)C(F)(F)F)cn34)nc12` [Example 88, 2-(6-((R)-1-((S)-3-aminopyrrolidin-1-yl)-2,2,2-trifluoroethyl)-[1,2,4]triazolo[4,3-a]pyridin-3-yl)quinoline-8-carbonitrile dihydrochloride]: the IC50 is 3.26 nM against PIM-1, over 100 nM in assay [1] and 18 nM at recombinant rat PIM-3.
For `N#Cc1cccc2ccc(-c3nnc4ccc([C@@H](N5C[C@@H]6C[C@H]5CN6)C(F)(F)F)cn34)nc12` [Example 89, 2-(6-((R)-1-((1S,4S)-2,5-diazabicyclo[2.2.1]heptan-2-yl)-2,2,2-trifluoroethyl)-[1,2,4]triazolo[4,3-a]pyridin-3-yl)quinoline-8-carbonitrile dihydrochloride], in that order: 5.38 nM, over 100 nM and 14 nM.
With `CC(C)Oc1cccc2ccc(-c3nnc4ccc([C@H](N5CC[C@@](C)(N)C5)C(F)(F)F)cn34)nc12` [Example 90, (R)-3-methyl-1-((S)-2,2,2-trifluoro-1-(3-(8-isopropoxyquinolin-2-yl)-[1,2,4]triazolo[4,3-a]pyridin-6-yl)ethyl)pyrrolidin-3-amine dihydrochloride], the concentration for half-maximal inhibition (IC50) at PIM-1 was 2.26 nM; in assay [1], over 100 nM; at recombinant rat PIM-3, 23 nM.
Regarding `CC(C)Oc1cccc2ccc(-c3nnc4ccc([C@@H](N5CC[C@@](C)(N)C5)C(F)(F)F)cn34)nc12` [Example 91, (R)-3-methyl-1-((R)-2,2,2-trifluoro-1-(3-(8-isopropoxyquinolin-2-yl)-[1,2,4]triazolo[4,3-a]pyridin-6-yl)ethyl)pyrrolidin-3-amine dihydrochloride], the IC50 on PIM-1 was 0.25 nM; in assay [1] it was over 100 nM; on recombinant rat PIM-3, 2.6 nM.
For `CC(C)Oc1cccc2ccc(-c3nnc4ccc([C@H](N5CC[C@](C)(N)C5)C(F)(F)F)cn34)nc12` [Example 92, (S)-3-methyl-1-((S)-2,2,2-trifluoro-1-(3-(8-isopropoxyquinolin-2-yl)-[1,2,4]triazolo[4,3-a]pyridin-6-yl)ethyl)pyrrolidin-3-amine dihydrochloride], in that order: 0.22 nM, 33 nM and 0.8 nM.
Regarding `CC(C)Oc1cccc2ccc(-c3nnc4ccc([C@@H](N5CC[C@](C)(N)C5)C(F)(F)F)cn34)nc12` [Example 93, (S)-3-methyl-1-((R)-2,2,2-trifluoro-1-(3-(8-isopropoxyquinolin-2-yl)-[1,2,4]triazolo[4,3-a]pyridin-6-yl)ethyl)pyrrolidin-3-amine dihydrochloride], the concentration for half-maximal inhibition (IC50) on PIM-1 is 0.2 nM; in assay [1], 83 nM; at recombinant rat PIM-3 it was 0.9 nM.
Take `C[C@@]1(N)CCN([C@@H](c2ccc3nnc(-c4ccc5cccc(C6CC6)c5n4)n3c2)C(F)(F)F)C1` [Example 94, (R)-1-((S)-1-(3-(8-cyclopropylquinolin-2-yl)-[1,2,4]triazolo[4,3-a]pyridin-6-yl)-2,2,2-trifluoroethyl)-3-methylpyrrolidin-3-amine dihydrochloride]: the IC50 was found to be 0.29 nM against PIM-1, 31 nM in assay [1] and 4.6 nM at recombinant rat PIM-3.
As to `C[C@@]1(N)CCN([C@H](c2ccc3nnc(-c4ccc5cccc(C6CC6)c5n4)n3c2)C(F)(F)F)C1` [Example 95, (R)-1-((R)-1-(3-(8-cyclopropylquinolin-2-yl)-[1,2,4]triazolo[4,3-a]pyridin-6-yl)-2,2,2-trifluoroethyl)-3-methylpyrrolidin-3-amine dihydrochloride], the half-inhibitory concentration (IC50) turned out to be 0.19 nM at PIM-1, 79 nM in assay [1] and 3 nM at recombinant rat PIM-3.
`C[C@]1(N)CCN([C@@H](c2ccc3nnc(-c4ccc5cccc(C6CC6)c5n4)n3c2)C(F)(F)F)C1` [Example 96, (S)-1-((S)-1-(3-(8-cyclopropylquinolin-2-yl)-[1,2,4]triazolo[4,3-a]pyridin-6-yl)-2,2,2-trifluoroethyl)-3-methylpyrrolidin-3-amine dihydrochloride]: the 50% inhibitory concentration (IC50) was found to be 0.12 nM at PIM-1, 5.4 nM in assay [1] and 0.5 nM at recombinant rat PIM-3.
As for `C[C@]1(N)CCN([C@H](c2ccc3nnc(-c4ccc5cccc(C6CC6)c5n4)n3c2)C(F)(F)F)C1` [Example 97, (S)-1-((R)-1-(3-(8-cyclopropylquinolin-2-yl)-[1,2,4]triazolo[4,3-a]pyridin-6-yl)-2,2,2-trifluoroethyl)-3-methylpyrrolidin-3-amine dihydrochloride], the 50% inhibitory concentration (IC50) on PIM-1 came out at 0.11 nM; in assay [1] it was 65 nM; at recombinant rat PIM-3, 8.1 nM.
Take `COCCOc1cc(F)cc2ccc(-c3nnc4ccc([C@@H](N5CC[C@H](N)C5)C(F)(F)F)cn34)nc12` [Example 98, (S)-1-((R)-2,2,2-trifluoro-1-(3-(6-fluoro-8-(2-methoxyethoxy)quinolin-2-yl)-[1,2,4]triazolo[4,3-a]pyridin-6-yl)ethyl)pyrrolidin-3-amine hydrochloride]: the IC50 was 0.38 nM against PIM-1, over 100 nM in assay [1] and 1.8 nM at recombinant rat PIM-3.
Regarding `CC(C)(C#N)c1cccc2ccc(-c3nnc4ccc([C@@H](N5CC[C@H](N)C5)C(F)(F)F)cn34)nc12` [Example 99, 2-(2-(6-((R)-1-((S)-3-aminopyrrolidin-1-yl)-2,2,2-trifluoroethyl)-[1,2,4]triazolo[4,3-a]pyridin-3-yl)quinolin-8-yl)-2-methylpropanenitrile dihydrochloride], the results for the half-inhibitory concentration (IC50) (against PIM-1; in assay [1]; on recombinant rat PIM-3) were 0.11 nM, 55 nM and 0.6 nM, respectively.
Take `CC(C)(C)c1cccc2ccc(-c3nnc4ccc([C@@H](N5CC[C@H](NCCO)C5)C(F)(F)F)cn34)nc12` [Example 100, 2-((S)-1-((R)-1-(3-(8-tert-butylquinolin-2-yl)-[1,2,4]triazolo[4,3-a]pyridin-6-yl)-2,2,2-trifluoroethyl)pyrrolidin-3-ylamino)ethanol dihydrochloride]: the 50% inhibitory concentration (IC50) at PIM-1 is 0.1 nM; in assay [1] it was 6.5 nM; at recombinant rat PIM-3 it was 1.1 nM.

One may read the IC50 as the concentration that gives 50% inhibition.

For the origin of these results see US8889704B2 (Array BioPharma Inc., priority 2011, dated 2014).
